Measured values taken from patent US9334500B2, “Methods and pharmaceutical compositions for treating cancer” (Agency for Science, Technology and Research, priority 2011, dated 2016).
Read-outs that look alike come from different tables or passages of the source.

What was measured:
UBASH3B expression = experiment: Real-time PCR and Western blot analysis of UBASH3B expression; assay type: cell-based, human
Description: (§1) All siRNA were designed by 1st Base Singapore except for ETS1 siRNA#1 which was referenced from a previously published paper^7. Oligo miRNA mimics and antagomirs were purchased from Dharmacon, Inc. (Chicago, Ill., USA). For transfection, 30 nM siRNAs, 15 nM miRNA mimics or 100 nM iRNA antagomirs were used to transfect cells. 48 h after transfection cell pellets were collected and subjected indicated assays.
Total RNA including small RNAs was isolated using RNeasy Mini Kit (Qiagen). The microarray hybridization was performed using the Illumina HumanHT-12 V4.0 expression beadchip, and data analysis was performed using GeneSpring software from Agilent Technologies. Microarray data reported herein have been deposited at the NCBI Gene Expression Omnibus with the accession number GSE36693. Reverse transcription and quantitative PCR assays were performed using High Capacity cDNA Archive kit and KAPA SyBr Fast qPCR kit (KAPA Biosystems), respectively. TaqMan MicroRNA assays were used to quantify the level of mature miRNAs as previously described^8. Briefly, 10 ng of total RNA was reverse-transcribed and product was subjected to TaqMan stemloop miRNA assay (Applied Biosystems). RNU6B was used to normalize the data. For quantification of mRNA levels, 18S level was used as internal control. All reactions were analyzed in an Applied Biosystems 7500 Fast. Real-Time PCR system in 96-well plate format. Real-time primer sequences are listed in Supplementary Table 2.
(§2) Western Blotting was performed as described previously^9. Anti-UBASH3B (ab34781) was purchased from Abcam. Anti-EGFR (cs2232), anti-CBL (cs2747) and anti-Pan phosphor-Tyr (cs9411) was purchased from Cell Signaling. Anti-ETS1 (sc350), anti-ZEB1 (sc-2538.8), and anti-ZEB2 (sc-48789) were obtained from Santa Cruz. Anti-Myc and anti-Actin were purchased from Roche Applied Science and Sigma-Aldrich, respectively.

MB231-LN xenograft tumor = experiment: MB231-LN subcutaneous xenograft tumor growth with Erlotinib treatment; assay type: in vivo, mice; conditions: 100 mg/kg oral gavage, 6 days per week for 4 weeks
Description: All raw measurements were presented as mean±SEM (standard error of the mean). Comparisons of curves between primary tumor and BLI lung metastasis growth were performed using repeated Anova analysis. Survival analysis was performed using Kaplan-Meier estimator and log-rank test. The relative hazard ratio between different groups was calculated based on Cox-proportional hazards model and presented as HR (95% CI). Other comparisons were performed using unpaired two-sided Student's t-test without equal variance assumption or nonparametric Mann-Whitney test. All statistic calculations were performed with Excel, Stata 7 and EPI info. […] For in vivo Erlotinib treatment, both control cell and UBASH3B KD MB231-LN cells were subcutaneously injected into 6-8 week female nude mice at 5×10^6 cells, followed by treatment with vehicle or Erlotinib (LC lab, #E-4007) at 100 mg/kg by oral gavage with 6 consecutive days per week for 4 weeks after average tumor volume reached around 150 mm^3. Tumors were measured by calliper three times per week and tumors volume was calculated with formula: V=W*W*L/2.

MB231-LN = experiment: Methylcellulose assay (anchorage-independent growth); conditions: for EC50: Homo sapiens
[1] = system: SUM159PT-R (Paclitaxel-resistant SUM159PT) cells; experiment: Cell viability assay after Paclitaxel treatment; assay type: cell-based; conditions: Paclitaxel-resistant SUM159PT with UBASH3B knockdown; 72 hrs
Description: Cell viability assay was performed and EC50 of Paclitaxel in each sample was determined and shown at the top. UBASH3B knockdown efficiency was assessed by Western blotting, shown at the bottom. *P<0.05, paired two-tailed t-test. Error bars, mean+SEM.
Cell viability was determined using CellTiter-Glo Luminescent Cell Viability Assay (Promega) as instructed by manufacturer's manual. 1000 cells were plated in 96-well plate and the readings were taken for 5 consecutive days using CellTiter-Glo kit (Promega).

ZEB1 and ZEB2 = experiment: Western blot of ZEB1 and ZEB2 expression; assay type: cell-based, human; conditions: MB231 and BT549 overexpressing mimics
Description: as §1, §2

UBASH3B 3'-UTR = experiment: Luciferase reporter assay with UBASH3B 3'-UTR reporters; assay type: cell-based; conditions: wild type vs miR-200a binding site mutated reporters; 40 nM mimics
Description: HCT116 cells were plated at a density of 5×10^4 cells per well in 24-well plate format and transfected with 10 ng of pMIR REPORT containing the respective miRNA responsive regions of UBASH3B 3′ UTR sequence, 40 nM of miRNA mimics and 5 ng of pRL null internal control simultaneously on the next day. At 48 h after transfection, the luciferase activities were measured using the Dual Luciferase system (Promega). All luciferase readings were first normalized to corresponding internal control pRL null Renilla luciferase readings. The resulting relative activities were further normalized to appropriate controls.

## N#CC(=C(/N)Sc1ccccc1N)/C(C#N)=C(\N)Sc1ccccc1N [U0126]
UBASH3B expression; MB231 cells, 5 μM, real-time PCR, indicated time points
  UBASH3B expression: decrease the UBASH3B expression in a time-dependent manner

## C#Cc1cccc(Nc2ncnc3cc(OCCOC)c(OCCOC)cc23)c1 [Erlotinib]
MB231-LN xenograft tumor; UBASH3B depleted tumors
  xenograft tumor growth response to Erlotinib: irresponsive
MB231-LN xenograft tumor; control tumors
  xenograft tumor growth response to Erlotinib: marked growth inhibition
MB231-LN; read-out: EC50 of Erlotinib, MB231-LN cells with UBASH3B depletion
  EC50: 3850 nM
MB231-LN; read-out: EC50 of Erlotinib, MB231-LN control cells, without UBASH3B depletion
  EC50: 450 nM
MB231-LN; UBASH3B-depleted MB231 with ectopic overexpression of EGFR
  sensitivity of cells to Erlotinib treatment: restored the sensitivity

## CC(=O)O[C@H]1C(=O)[C@@]2(C)[C@H]([C@H](OC(=O)c3ccccc3)[C@]3(O)C[C@H](OC(=O)[C@H](O)[C@@H](NC(=O)c4ccccc4)c4ccccc4)C(C)=C1C3(C)C)[C@]1(OC(C)=O)CO[C@@H]1C[C@@H]2O [Paclitaxel]
[1]
  sensitivity to Paclitaxel treatment: increased sensitivity
MB231-LN; read-out: EC50 of Paclitaxel, cells with UBASH3B depletion
  EC50: 0.61 nM
MB231-LN; read-out: EC50 of Paclitaxel, control cells, without UBASH3B depletion
  EC50: 4.53 nM

## miR-200a: oligo miRNA mimic purchased from Dharmacon (UAACACUGUCUGGUAACGAUGU; listed as RNA, chemistry not given here)
ZEB1 and ZEB2
  expression of ZEB1 and ZEB2: could repress
UBASH3B expression; BT549 cells, miR-200a overexpression combined with ETS1 knockdown
  UBASH3B expression: more pronounced downregulation
UBASH3B expression; enforced expression of mimics in invasive breast and prostate cancer cells
  UBASH3B mRNA and protein expression: able to reduce
UBASH3B 3'-UTR
  targeting and inhibition of UBASH3B 3'-UTR reporter: direct and specific targeting and inhibition
